US20080318949A1, “Pyrazolopyrimidinone Derivatives, Their Preparation And Their Use” (Topharman Shanghai Co., Ltd, priority 2005, published 2008)

Tests used:
PDE3 = target: T1, PDE3 (Homo sapiens, UniProt Q14432); experiment: PDE3 inhibitory activity test (scintillation proximity assay); format: biochemical; conditions: PDE3 isolated from human platelets
T1 construct: from tissue; host or cells: human platelets
Excerpt: (§1) The PDE5 and PDE3 were isolated form human platelets, while the PDE6 was isolated form bovine retinas. The enzyme inhibitory activity test conducted immediately after the enzymes had been isolated, using a scintillation proximity assay for the direct detection of AMP/GMP by the TRKQ7100 and TRKQ7090 kit. In summary, the effect of PDE inhibitors was investigated by assaying a fixed amount of enzyme in the presence of varying inhibitor concentrations and low substrate. The final assay volume was made up to 100 μl with 10 μl assay buffer (50 mM Tris/HCl PH 7.5, 8.3 mM MgCl2, 1.7 mM EGTA), and water. Reactions were initiated with enzyme, incubate for 30 minutes at 30° C. and terminated with 50 μl yttrium silicate SPA beads suspension containing zinc sulphate. Shook for 20 minutes and settled for 30 minutes in the dark, then counted on a BECKMAN LS6500 MULTI-PURPOSE SCINTILLATION COUNTER. The IC50 value for the compounds according the present invention was calculated according the counts.
PDE3 is a PDE isozyme distributed mainly in heart, so the inhibiting of PDE3 may lead to side effects associated with heart. Accordingly, the inhibitory activities of some example compounds according to the invention against PDE3 were determined.

rat corpora cavernosa = experiment: Pharmacodynamic test: intracavernous pressure on electric stimulation of the cavernous nerve; format: in vivo; conditions: anesthetized male SD rats, 5 mg/kg orally, ratio of ICP to MBp
Description: The test was carried out based on the methods reported (International Journal of Impotence Research 2002, 14, 251 and The Journal of Urology 1992, 147, 1124). After fasted for 12 hours, 4 male SD rats were randomized into each group. After anesthetizing the rats with sodium pentobarbital (50 mg/kg, i.p.), the penile skin was incised and the prepuce was degloved to expose completely the corpora cavernosa (CC). A needle linked to an electrophysiology instrument was inserted into the CC on the right side in order to measure the intracavernous pressure (ICP). The right carotid artery was cannulated in a similar manner to the polyethylene tube in order to monitor the mean blood pressure (MBp) continuously. […] Electric stimulation was performed at 2 Hz, for 60 s with a pulse duration of 5 ms and 3V using a stimulator. The compounds were administrated orally (5 mg/kg). The change of the ICP and MBp were monitored continuously before and after the administration. The effect of the compounds on the erection induced by electric stimulation was evaluated by the ratio of ICP to MBp. The parameter (ICP/MBp) was used to estimate the influence of the compounds to the rat corpora cavernosa. […] The statistical significance of the differences between groups was calculated using Duncan's multiple comparison.

PDE6 from bovine retina = target: T2, PDE6 from bovine retina (Bos taurus, UniProt P11541+P23439); experiment: PDE6 inhibitory activity test (scintillation proximity assay); format: biochemical; conditions: for IC50: PDE6 from bovine retina; for PDE6 IC50/PDE5 IC50: selectivity of PDE5 versus PDE6
T2 construct: the PDE6 was isolated form bovine retinas; from tissue; host or cells: bovine retina
T2 sequence (P11541 2-856 limits assumed): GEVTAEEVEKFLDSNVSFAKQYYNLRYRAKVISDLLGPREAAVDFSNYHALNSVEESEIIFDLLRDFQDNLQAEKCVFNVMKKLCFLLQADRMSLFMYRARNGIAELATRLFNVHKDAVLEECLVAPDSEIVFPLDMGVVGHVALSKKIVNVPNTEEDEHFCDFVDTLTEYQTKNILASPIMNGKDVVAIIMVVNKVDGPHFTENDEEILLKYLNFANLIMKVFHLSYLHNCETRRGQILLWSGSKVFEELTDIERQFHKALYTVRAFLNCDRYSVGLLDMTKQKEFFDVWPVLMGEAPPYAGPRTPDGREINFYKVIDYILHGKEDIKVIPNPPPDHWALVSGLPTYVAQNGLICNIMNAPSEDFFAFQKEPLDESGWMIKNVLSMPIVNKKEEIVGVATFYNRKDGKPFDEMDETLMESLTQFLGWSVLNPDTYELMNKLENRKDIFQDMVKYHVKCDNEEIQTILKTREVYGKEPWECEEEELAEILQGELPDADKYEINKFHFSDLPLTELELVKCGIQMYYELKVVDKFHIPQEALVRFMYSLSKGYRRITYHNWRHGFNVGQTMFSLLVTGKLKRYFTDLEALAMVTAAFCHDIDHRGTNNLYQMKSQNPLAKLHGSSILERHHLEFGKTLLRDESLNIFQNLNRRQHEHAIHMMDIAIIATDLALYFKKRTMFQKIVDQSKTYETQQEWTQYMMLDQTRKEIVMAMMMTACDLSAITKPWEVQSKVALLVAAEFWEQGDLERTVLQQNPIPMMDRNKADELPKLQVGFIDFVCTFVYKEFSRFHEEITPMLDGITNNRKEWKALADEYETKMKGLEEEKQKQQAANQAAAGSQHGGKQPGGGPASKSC
T2 sequence (P23439 2-850 limits assumed): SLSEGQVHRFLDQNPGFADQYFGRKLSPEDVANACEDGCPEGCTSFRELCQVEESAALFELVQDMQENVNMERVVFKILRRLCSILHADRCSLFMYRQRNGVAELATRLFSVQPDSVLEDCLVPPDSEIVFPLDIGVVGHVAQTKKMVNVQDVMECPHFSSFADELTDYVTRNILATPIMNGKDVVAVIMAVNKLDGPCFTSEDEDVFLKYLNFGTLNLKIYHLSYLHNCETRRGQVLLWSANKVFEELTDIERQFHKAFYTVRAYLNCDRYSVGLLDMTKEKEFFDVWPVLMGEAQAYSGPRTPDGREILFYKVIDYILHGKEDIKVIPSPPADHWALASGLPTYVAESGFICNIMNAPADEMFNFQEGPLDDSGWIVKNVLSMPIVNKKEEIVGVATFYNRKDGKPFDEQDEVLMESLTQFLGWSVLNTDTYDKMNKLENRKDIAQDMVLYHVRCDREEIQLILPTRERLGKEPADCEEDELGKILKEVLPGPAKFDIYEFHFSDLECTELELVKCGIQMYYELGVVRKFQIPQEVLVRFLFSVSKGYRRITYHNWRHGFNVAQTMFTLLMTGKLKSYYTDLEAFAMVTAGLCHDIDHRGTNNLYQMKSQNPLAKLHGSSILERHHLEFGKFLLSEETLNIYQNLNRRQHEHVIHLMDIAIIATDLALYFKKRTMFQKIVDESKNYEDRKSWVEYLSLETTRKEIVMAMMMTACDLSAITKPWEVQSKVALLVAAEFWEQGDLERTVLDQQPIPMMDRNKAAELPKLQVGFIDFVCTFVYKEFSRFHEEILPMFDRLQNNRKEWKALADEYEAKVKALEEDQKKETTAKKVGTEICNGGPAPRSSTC
Excerpt: as §1

[1] = target: T3, PDE5 from human platelets (Homo sapiens, UniProt O76074); experiment: PDE5 inhibitory activity test (scintillation proximity assay); format: biochemical
T3 construct: from tissue; host or cells: human platelets
Excerpt: as §1
According to the above-mentioned method, the inhibitory activities of some compounds of formula IA and IB according to the invention against PDE5 from human platelets were determined.

male KM mouse = experiment: Acute oral toxicity test; format: in vivo; conditions: single oral dose of 3 g/kg, 10 or 11 mice per group
Description: In this test male KM mouse weighting 18-22 g were used, and 10 or 11 mouse were assigned randomly to each group. […] The animals were fasted for 12 hours before the administration.

[2] = PDE5 in the PDE6 selectivity table

T1 sequence (Q14432 whole entry): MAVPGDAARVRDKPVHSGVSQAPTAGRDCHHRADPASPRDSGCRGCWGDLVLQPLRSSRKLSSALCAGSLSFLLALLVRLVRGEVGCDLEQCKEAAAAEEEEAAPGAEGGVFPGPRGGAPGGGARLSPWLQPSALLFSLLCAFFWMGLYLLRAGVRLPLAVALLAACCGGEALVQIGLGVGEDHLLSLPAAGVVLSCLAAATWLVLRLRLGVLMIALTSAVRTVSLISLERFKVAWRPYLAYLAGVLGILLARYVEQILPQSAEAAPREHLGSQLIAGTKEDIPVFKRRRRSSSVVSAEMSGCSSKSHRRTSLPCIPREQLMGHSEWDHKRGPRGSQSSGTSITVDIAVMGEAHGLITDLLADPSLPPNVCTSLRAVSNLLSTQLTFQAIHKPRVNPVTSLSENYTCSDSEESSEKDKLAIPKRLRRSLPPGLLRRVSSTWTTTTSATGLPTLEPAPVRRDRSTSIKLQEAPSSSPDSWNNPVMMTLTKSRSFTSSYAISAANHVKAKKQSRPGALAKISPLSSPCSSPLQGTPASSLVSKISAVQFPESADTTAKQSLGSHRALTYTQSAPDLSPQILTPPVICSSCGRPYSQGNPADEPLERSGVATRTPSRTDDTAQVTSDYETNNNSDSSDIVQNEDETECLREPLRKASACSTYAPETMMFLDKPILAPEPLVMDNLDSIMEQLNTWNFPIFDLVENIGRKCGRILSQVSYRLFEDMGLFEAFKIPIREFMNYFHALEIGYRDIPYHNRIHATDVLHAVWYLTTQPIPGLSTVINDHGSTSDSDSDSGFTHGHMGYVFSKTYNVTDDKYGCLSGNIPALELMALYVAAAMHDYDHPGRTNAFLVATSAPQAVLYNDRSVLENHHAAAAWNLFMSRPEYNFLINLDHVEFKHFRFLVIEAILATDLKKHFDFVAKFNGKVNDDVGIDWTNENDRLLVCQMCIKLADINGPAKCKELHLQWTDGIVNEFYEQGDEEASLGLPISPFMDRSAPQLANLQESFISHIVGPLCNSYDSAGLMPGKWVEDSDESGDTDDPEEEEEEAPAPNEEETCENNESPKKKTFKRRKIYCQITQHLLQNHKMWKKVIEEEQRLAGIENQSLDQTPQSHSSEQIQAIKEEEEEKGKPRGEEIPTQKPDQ

CCCOc1ccc(S(=O)(=O)N(C)CCOC(C)=O)cc1-c1nc2c(CCC)nn(C)c2c(=O)[nH]1 [Example 33, 1-methyl-5-{2-propoxy-5-[[1-methyl-1-(2-acetoxyethyl)]amidosulfonyl]phenyl}-3-n-propyl-1,6-dihydro-7H-pyrazolo[4,3-d]pyrimidin-7-one]
IC50 (PDE3): 30400 nM | ICP/BP (rat corpora cavernosa): 72.3 ± 28.6

CCCOc1ccc(S(=O)(=O)N(CC)CCN2CCOCC2)cc1-c1nc2c(CC)nn(C)c2c(=O)[nH]1 [Example 54, 1-methyl-5-{2-propoxy-5-[[1-ethyl-1-(2-morpholin-1-yl)ethyl]amidosulfonyl]phenyl}-3-ethyl-1,6-dihydro-7H-pyrazolo[4,3-d]pyrimidin-7-one]
IC50 (PDE6 from bovine retina): 235 nM | PDE6 IC50/PDE5 IC50 (PDE6 from bovine retina): 23.9 | IC50 ([1]; PDE5 from human platelets): 9.81 nM | IC50 [1, 2]: 9.81 nM | IC50 (PDE3): 16300 nM | Number of death (male KM mouse): 0 | mortality rate (male KM mouse): 0% | ICP/BP (rat corpora cavernosa): 86.3 ± 6.4

CCCOc1ccc(S(=O)(=O)N(CCN2CCOCC2)Cc2cccnc2)cc1-c1nc2c(CCC)nn(C)c2c(=O)[nH]1 [Example 62, 1-methyl-5-{2-propoxy-5-[[1-(3-pyridylmethyl)-1-(2-morpholin-1-yl)ethyl]amidosulfonyl]phenyl}-3-n-propyl-1,6-dihydro-7H-pyrazolo[4,3-d]pyrimidin-7-one]
IC50 (PDE3): 2860 nM | Number of death (male KM mouse): 6 | mortality rate (male KM mouse): 60% | ICP/BP (rat corpora cavernosa): 69.8 ± 12.2

CCCOc1ccc(S(=O)(=O)N(CCN2CCCC2)Cc2cccnc2)cc1-c1nc2c(CCC)nn(C)c2c(=O)[nH]1 [Example 89, 1-methyl-5-{2-propoxy-5-[[1-(3-pyridylmethyl)-1-(2-pyrrolidin-1-yl)ethyl]amidosulfonyl]phenyl}-3-n-propyl-1,6-dihydro-7H-pyrazolo[4,3-d]pyrimidin-7-one]
IC50 (PDE6 from bovine retina): 215 nM | PDE6 IC50/PDE5 IC50 (PDE6 from bovine retina): 27.4 | IC50 ([1]; PDE5 from human platelets): 7.85 nM | IC50 [1, 2]: 7.85 nM | Number of death (male KM mouse): 5 | mortality rate (male KM mouse): 45% | ICP/BP (rat corpora cavernosa): 70.9 ± 9.8

CCCOc1ccc(S(=O)(=O)N(CCCO)CCCOC(C)=O)cc1-c1nc2c(CCC)nn(C)c2c(=O)[nH]1 [Example 92, 1-methyl-5-{2-propoxy-5-[[1-(3-acetoxypropyl)-1-(3-hydroxypropyl)]amidosulfonyl]phenyl}-3-n-propyl-1,6-dihydro-7H-pyrazolol[4,3-d]pyrimidin-7-one]
IC50 (PDE6 from bovine retina): 254 nM | PDE6 IC50/PDE5 IC50 (PDE6 from bovine retina): 66.0 | IC50 ([1]; PDE5 from human platelets): 3.85 nM | IC50 [1, 2]: 3.85 nM | IC50 (PDE3): 10500 nM | Number of death (male KM mouse): 0 | mortality rate (male KM mouse): 0% | ICP/BP (rat corpora cavernosa): 86.4 ± 4.8

CCCOc1ccc(S(=O)(=O)N(CCCOC(C)=O)CCCOC(C)=O)cc1-c1nc2c(CCC)nn(C)c2c(=O)[nH]1 [Example 93, 1-methyl-5-{2-propoxy-5-[bis(3-acetoxypropyl)amidosulfonyl]phenyl}-3-n-propyl-1,6-dihydro-7H-pyrazolo[4,3-d]pyrimidin-7-one]
IC50 ([1]; PDE5 from human platelets): 3.8 nM | IC50 (PDE3): 6000 nM | Number of death (male KM mouse): 0 | mortality rate (male KM mouse): 0% | ICP/BP (rat corpora cavernosa): 77.2 ± 24.8

CCCOc1ccc(S(=O)(=O)N(CCOC(C)=O)CCN2CCOCC2)cc1-c1nc2c(CCC)nn(C)c2c(=O)[nH]1 [Example 96, 1-methyl-5-{2-propoxy-5-[[1-(2-acetoxyethyl)-1-(2-morpholin-1-yl)ethyl]amidosulfonyl]phenyl}-3-n-propyl-1,6-dihydro-7H-pyrazolo[4,3-d]pyrimidin-7-one]
IC50 (PDE6 from bovine retina): 244 nM | PDE6 IC50/PDE5 IC50 (PDE6 from bovine retina): 57.7 | IC50 ([1]; PDE5 from human platelets): 4.24 nM | IC50 [1, 2]: 4.24 nM | IC50 (PDE3): 12400 nM | Number of death (male KM mouse): 0 | mortality rate (male KM mouse): 0% | ICP/BP (rat corpora cavernosa): 81.0 ± 9.5

CCCOc1ccc(S(=O)(=O)N(CC)CCCOC(C)=O)cc1-c1nc2c(CCC)nn(C)c2c(=O)[nH]1 [Example 97, 1-methyl-5-{2-propoxy-5-[[1-ethyl-1-(3-acetoxypropyl)]amidosulfonyl]phenyl}-3-n-propyl-1,6-dihydro-7H-pyrazolo[4,3-d]pyrimidin-7-one]
IC50 ([1]; PDE5 from human platelets): 13.1 nM | IC50 (PDE3): 5120 nM | Number of death (male KM mouse): 5 | mortality rate (male KM mouse): 45% | ICP/BP (rat corpora cavernosa): 72.0 ± 13.5

CCCOc1ccc(S(=O)(=O)N(CCOCC)CCN2CCOCC2)cc1-c1nc2c(CCC)nn(C)c2c(=O)[nH]1 [Example 111, 1-methyl-5-{2-propoxy-5-[[1-(2-ethoxyethyl)-1-(2-morpholin-1-yl)ethyl]amidosulfonyl]phenyl}-3-n-propyl-1,6-dihydro-7H-pyrazolo[4,3-d]pyrimidin-7-one]
IC50 ([1]; PDE5 from human platelets): 6.83 nM | IC50 (PDE3): 8730 nM | Number of death (male KM mouse): 0 | mortality rate (male KM mouse): 0% | ICP/BP (rat corpora cavernosa): 89.1 ± 6.9

CCCOc1ccc(S(=O)(=O)N(CCCOC)CCCOC(C)=O)cc1-c1nc2c(CCC)nn(C)c2c(=O)[nH]1 [Example 118, 1-methyl-5-{2-propoxy-5-[[1-(3-methoxypropyl)-1-(3-acetoxypropyl)]amidosulfonyl]phenyl}-3-n-propyl-1,6-dihydro-7H-pyrazolo[4,3-d]pyrimidin-7-one]
IC50 (PDE6 from bovine retina): 203 nM | PDE6 IC50/PDE5 IC50 (PDE6 from bovine retina): 37.6 | IC50 ([1]; PDE5 from human platelets): 5.41 nM | IC50 [1, 2]: 5.41 nM | IC50 (PDE3): 20500 nM | Number of death (male KM mouse): 0 | mortality rate (male KM mouse): 0% | ICP/BP (rat corpora cavernosa): 77.9 ± 2.3
